Laboratory results: paper PMC6277375, “Pharmacological profile of the neuropeptide S receptor: Dynamic mass redistribution studies” (Pharmacology Research & Perspectives, 2018)
Several values for one entry are separate records, joined by “and”; a condition that tells them apart may be missing. Equal values may be shown once. Marks after values point to notes of the source that are not given here. Numbered stars: 1 amine (or outer) side, 2 acyl side, 3 side chain; on linkers, the order of the positions; unused ones are H or OH. Bridge positions count the residues as written; N and C are the ends. Square brackets hold non-standard residues; d marks the D form. Ends that are not written are not given here. Peptide text beside a SMILES is read from it. * marks the point of attachment. Leu(3R-OH,Nα-propionyl) = CCC(=O)N[C@H](C(=O)*)[C@H](O)C(C)C; X1 = CC(C)[C@@H](O[*:3])[C@H](N[*:1])C(=O)[*:2]; NMeT = CN[C@H](C(=O)O)[C@@H](C)O; dPhLac = O=C(O)[C@H](O)Cc1ccccc1; NMeA = CN[C@@H](C)C(=O)O; NMeDha = C=C(NC)C(=O)O

Columns and labels:
murine NPSR [1] = target: T1, murine NPSR (Mus musculus, UniProt Q8BZP8); assay: Calcium mobilization assay in HEK293mNPSR cells; type: cell-based; settings: FR900359 injected 24 minute before NPS, Fluo-4 AM, FlexStation II, 37°C
T1 construct: expressed in transfected cells
T1 sequence (Q8BZP8 1-371): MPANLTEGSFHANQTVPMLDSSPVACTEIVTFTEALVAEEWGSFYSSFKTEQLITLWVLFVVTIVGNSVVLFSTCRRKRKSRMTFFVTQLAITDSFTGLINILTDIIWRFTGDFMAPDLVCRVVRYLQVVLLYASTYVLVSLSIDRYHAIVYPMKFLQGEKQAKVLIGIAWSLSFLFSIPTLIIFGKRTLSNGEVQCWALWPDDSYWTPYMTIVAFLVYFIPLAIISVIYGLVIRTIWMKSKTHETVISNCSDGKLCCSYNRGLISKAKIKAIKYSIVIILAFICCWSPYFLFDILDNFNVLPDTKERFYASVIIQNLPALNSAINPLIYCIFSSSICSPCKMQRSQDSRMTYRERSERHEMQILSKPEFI
Procedure: Cells were seeded at a density of 50 000 cells/well in 100 μL into poly‐D‐lysine coated 96‐well black, clear‐bottom plates. The following day, cells were incubated with medium supplemented with 2.5 mmol L^−1 probenecid, 3 μmol L^−1 of the calcium sensitive fluorescent dye Fluo‐4 AM and 0.01% pluronic acid, for 30 minute at 37°C. Following this, the loading solution was aspirated and 100 μL of HBSS supplemented with 20 mmol L^−1 HEPES, 2.5 mmol L^−1 probenecid and 500 μmol L^−1 Brilliant Black were added. Cell culture and drug plates were placed into a fluorimetric imaging plate reader (FlexStation II, Molecular Devices, Sunnyvale, CA) and fluorescent changes were measured. On‐line additions were carried out in a volume of 50 μL/well. To facilitate drug diffusion into the wells, the present studies were performed at 37°C and three cycles of mixing (25 μL from each well moved up and down three times) were performed immediately after FR900359 injection to the wells. FR900359 was injected into the wells 24 minute before adding NPS.
All data were analyzed using Graph Pad Prism 6.0 (La Jolla, CA, USA). […] Data are expressed as mean ± SEM of n experiments performed in duplicate and were analyzed using one‐ or two‐way analysis of variance (ANOVA) followed by Dunnett's or Tukey's test for multiple comparisons wherever appropriate. […]

murine NPSR [2] = target: T1, murine NPSR; assay: Dynamic mass redistribution (DMR) assay in HEK293mNPSR cells; type: cell-based; settings: for DMR response, HEK293mNPSR pm ± SEM: peak at 60 minute, mean ± SEM, duplicate; for intrinsic activity α ± SEM: DMR, relative to NPS = 1.00, SEM; for fold less potent than NPS (DMR): agonist potency relative to NPS
Procedure: (§1) HEK293 cells stably expressing the murine NPSR receptor (HEK293mNPSR) were described previously.3 Wild‐type HEK293 cells were used as a control. Cells were maintained in Dulbecco's Medium (DMEM) supplemented with 10% fetal bovine serum, 100 U/mL penicillin, 100 μg/mL streptomycin and, 2 mmol L^−1 L‐glutamine. The medium was complemented with 100 mg/L hygromycin for HEK293mNPSR. Cells were cultured at 37°C in 5% CO2 humidified air.
Confluent cells were subcultured using trypsin/EDTA and used for experiments. […] On the day of the experiment, cells were manually washed twice and maintained with assay buffer for 90 minutes before DMR experiments. DMR was monitored in real time with a temporal resolution of 22 seconds throughout the assay. Experiments were performed at 37°C, using an EnSight Multimode Plate Reader (PerkinElmer), that uses the Corning® Epic® Technology to measure the DMR signal. Agonism protocol: a 5‐minute baseline was first established, followed by adding compounds manually in a volume of 10 μL and recording compounds‐triggered DMR signal for 60 minute. Antagonism protocol: antagonists were added manually 25 minute before reading the 5‐minute baseline. After baseline establishment, NPS was injected and DMR signal was recorded for 60 minute. Antagonist properties of ligands were measured by assessing the concentration‐response curve to NPS in the absence and in presence of a fixed concentration of compound. FR900359 was added 60 minute before NPS, rolipram was incubated for 90 minute before NPS, while PTX was added 24 hours before NPS. Maximum picometer (pm) modifications (peak measured at 60 minute time point) were used to determine agonist response after baseline normalization.
All data were analyzed using Graph Pad Prism 6.0 (La Jolla, CA, USA). Concentration‐response curves were fitted using the four parameters log logistic equation. Data are expressed as mean ± SEM of n experiments performed in duplicate and were analyzed using one‐ or two‐way analysis of variance (ANOVA) followed by Dunnett's or Tukey's test for multiple comparisons wherever appropriate. […] Antagonists potencies were assayed at single concentrations against the concentration‐response curve to NPS and their pA2 was derived using the following equation: pA2 = log(CR − 1) − log[A], where CR is the ratio between agonist potency (EC50) in the presence and in absence of antagonist and [A] is the molar concentration of antagonist.

HEK293mNPSR cells = assay: DMR response to NECA with and without rolipram in HEK293mNPSR cells; type: cell-based; settings: NECA 10 μmol L^−1 + rolipram 10 μmol L^−1 (90 minute before), P < 0.05 vs NECA alone
Procedure: Confluent cells were subcultured using trypsin/EDTA and used for experiments. Cells were seeded at a density of 20 000 cells/well in 30 μL into fibronectin‐coated Enspire™‐LC 384‐wells plates and cultured for 20 hours to form a confluent monolayer. On the day of the experiment, cells were manually washed twice and maintained with assay buffer for 90 minutes before DMR experiments. DMR was monitored in real time with a temporal resolution of 22 seconds throughout the assay. Experiments were performed at 37°C, using an EnSight Multimode Plate Reader (PerkinElmer), that uses the Corning® Epic® Technology to measure the DMR signal. Agonism protocol: a 5‐minute baseline was first established, followed by adding compounds manually in a volume of 10 μL and recording compounds‐triggered DMR signal for 60 minute. Antagonism protocol: antagonists were added manually 25 minute before reading the 5‐minute baseline. After baseline establishment, NPS was injected and DMR signal was recorded for 60 minute. Antagonist properties of ligands were measured by assessing the concentration‐response curve to NPS in the absence and in presence of a fixed concentration of compound. […] Maximum picometer (pm) modifications (peak measured at 60 minute time point) were used to determine agonist response after baseline normalization. […]

wild-type HEK293 cells = assay: DMR assay in wild-type HEK293 cells (control); type: cell-based, Human; settings: mean ± SEM, duplicate
Procedure: as §1
Confluent cells were subcultured using trypsin/EDTA and used for experiments. Cells were seeded at a density of 20 000 cells/well in 30 μL into fibronectin‐coated Enspire™‐LC 384‐wells plates and cultured for 20 hours to form a confluent monolayer. On the day of the experiment, cells were manually washed twice and maintained with assay buffer for 90 minutes before DMR experiments. DMR was monitored in real time with a temporal resolution of 22 seconds throughout the assay. Experiments were performed at 37°C, using an EnSight Multimode Plate Reader (PerkinElmer), that uses the Corning® Epic® Technology to measure the DMR signal. Agonism protocol: a 5‐minute baseline was first established, followed by adding compounds manually in a volume of 10 μL and recording compounds‐triggered DMR signal for 60 minute. Antagonism protocol: antagonists were added manually 25 minute before reading the 5‐minute baseline. After baseline establishment, NPS was injected and DMR signal was recorded for 60 minute. Antagonist properties of ligands were measured by assessing the concentration‐response curve to NPS in the absence and in presence of a fixed concentration of compound. FR900359 was added 60 minute before NPS, rolipram was incubated for 90 minute before NPS, while PTX was added 24 hours before NPS. Maximum picometer (pm) modifications (peak measured at 60 minute time point) were used to determine agonist response after baseline normalization.
All data were analyzed using Graph Pad Prism 6.0 (La Jolla, CA, USA). Concentration‐response curves were fitted using the four parameters log logistic equation. Data are expressed as mean ± SEM of n experiments performed in duplicate and were analyzed using one‐ or two‐way analysis of variance (ANOVA) followed by Dunnett's or Tukey's test for multiple comparisons wherever appropriate. Agonist potency was expressed as pEC50, which is the negative logarithm to base 10 of the agonist molar concentration that produces 50% of the maximal possible effect of that agonist. Antagonists potencies were assayed at single concentrations against the concentration‐response curve to NPS and their pA2 was derived using the following equation: pA2 = log(CR − 1) − log[A], where CR is the ratio between agonist potency (EC50) in the presence and in absence of antagonist and [A] is the molar concentration of antagonist.

NPSR = settings: cited from earlier work
From the text: The pharmacological profile of NPSR in the DMR assay has been investigated using several NPSR ligands acting as full and partial agonists and pure antagonists in the calcium mobilization assay. The DMR effects of these compounds solely derive from their capability to activate NPSR since we selected their concentration range based on lack of DMR signal in wild‐type cells. Overall, the DMR pharmacological profile of NPSR looks similar but not identical to that reported in literature using the calcium mobilization assay. The first aspect that deserves attention is related to the efficacy of NPSR ... || Regarding NPSR agonists, another point that must be addressed is the pharmacological behavior of PWT1‐NPS. […] The high in vitro potency of PWT1‐NPS was associated with a high in vivo potency and long‐lasting duration of action.31 These features seem to be common to PWT derivatives of other neuropeptides including nociceptin/orphanin FQ, opioids and tachykinins (reviewed in 40). In DMR experiments, we were not able to fully investigate the pharmacologic ...

[3] = ligand 10 μmol L^−1, 37°C, peak at 60 minute after baseline normalization

Compound | DMR response, HEK293 pm ± SEM (wild-type HEK293 cells; [3]) | DMR response, HEK293mNPSR pm ± SEM (murine NPSR [2]; ligand 10 μmol L^−1, 37°C) | intrinsic activity α ± SEM (murine NPSR [2]) | fold less potent than NPS (DMR) (murine NPSR [2]) | further results
C=C1C(=O)N[C@@H](C)C(=O)N(C)[C@@H](C)C(=O)N[C@@H]([C@H](OC(=O)[C@@H](NC(=O)CC)[C@H](O)C(C)C)C(C)C)C(=O)N(C)[C@@H]([C@@H](C)OC)C(=O)O[C@H](C(C)C)[C@H](NC(C)=O)C(=O)O[C@H](Cc2ccccc2)C(=O)N1C [FR900359, [(1R)‐1‐[(3S,6S,9S,12S,18R,21S,22R)‐21‐acetamido‐18‐benzyl‐3‐[(1R)‐1‐methoxyethyl]‐4,9,10,12,16‐pentamethyl‐15‐methylidene‐2,5,8,11,14,17,20‐heptaoxo‐22‐propan‐2‐yl‐1,19‐dioxa‐4,7,10,13,16‐pentazacyclodocos‐6‐yl]‐2‐methylpropyl] (2S,3R)‐3‐hydroxy‐4‐methyl‐2‐(propanoylamino)pentanoate, reference compound] (Ac-[X1][dPhLac][NMeDha]A[NMeA][X1](Leu(3R-OH,Nα-propionyl))[NMeT](Me); ester 1-C) | – | – | – | – | Effect of inhibitor on NPS stimulated calcium mobilization (murine NPSR [1]): completely abolished; Effect of inhibitor on NPS-evoked DMR response (murine NPSR [2]; FR900359 1 μmol L^−1 (60 minute before NPS), PTX 100 ng mL^−1 (24 hours before), rolipram 10 μmol L^−1 (90 minute before)): strongly, but not completely, reduced NPS effects
CCNC(=O)[C@H]1O[C@@H](n2cnc3c(N)ncnc32)[C@H](O)[C@@H]1O [NECA, (2S,3S,4R,5R)‐5‐(6‐aminopurin‐9‐yl)‐N‐ethyl‐3,4‐dihydroxyoxolane‐2‐carboxamide, reference compound] | 312 ± 28 ^a pm | 229 ± 18 pm and 229 ± 18 ^a pm | – | – | DMR response of NECA in presence of rolipram (HEK293mNPSR cells): 464 ± 58 pm
C[N+](C)(C)CCOC(N)=O [Carbachol, reference compound] | – | – | – | – | DMR response, HEK293 pm ± SEM (wild-type HEK293 cells; ligand 100 μmol L^−1, 37°C, peak at 60 minute): 480 ± 51 ^a pm; DMR response, HEK293mNPSR pm ± SEM (murine NPSR [2]; ligand 100 μmol L^−1, 37°C): 393 ± 9 ^a pm
[D‐Cys(^tBu)^5]NPS | – | – | – | – | behaviour in the calcium mobilization assay (NPSR): pure NPSR antagonist; DMR response, HEK293mNPSR pm ± SEM (murine NPSR [2]; ligand 1 μmol L^−1, 37°C): 387 ± 43 pm and 387 ± 43 ^a pm; DMR response as % of NPS maximal effect (murine NPSR [2]; ligand 1 μmol L^−1 alone): 58%
FRNGVGTGMKKTSFQRAKS [NPS(2‐20)] | 70 ± 10 pm | 782 ± 46 ^a pm | 1.14 ± 0.05 | approximately 30 fold | –
SFRNGVGTGM [NPS(1‐10)] | 27 ± 6 pm | 683 ± 90 ^a pm | 1.09 ± 0.14 | 100 fold | fold less potent than NPS (DMR) (murine NPSR [2]; listed as NPS (1‐10)): approximately 100 fold
